# Source: patent US7718700B2, “Growth factor-binding compounds and methods of use” (Yale University, priority 2004, dated 2010)
# “And” between values parts separate entries of the source, which are not always exact repeats. Equal entries are not always repeated. Where two headings read alike, the source gives them in different places.
# Columns and labels:
# PDGFR [1] = experiment: PDGF-stimulated PDGFR tyrosine phosphorylation in NIH 3T3 cells; assay type: cell-based, mouse; conditions: NIH 3T3 cells; read-out: IC50 PDGFR tyrosine phosphorylation (PDGF)
# Experimental: (§1) Inhibition of growth factor-dependent receptor tyrosine phosphorylation by GFBs. Starved Flk-1/KDR-overexpressing NIH 3T3 cells (Flk-1/NIH 3T3) or NIH 3T3 cells were pretreated with GFBs for 5 min before stimulation with VEGF (50 ng/ml) or PDGF-BB (10 ng/ml) for 10 min, respectively. The cells were then harvested and lysed, and proteins from the lysates were separated by SDS-PAGE and transferred to nitrocellulose. Membranes then were either immunoblotted with anti-phospho-VEGFR2 antibody (Cell Signaling Technologies, Beverly, Mass.) for activated Flk-1 or anti-phospho-tyrosine antibody (4G10, Upstate Biotechnology, Lake Placid, N.Y.) for activated PDGFR. Phosphotyrosine Flk-1 and PDGFR were quantified using a Bio-Rad Model GS-700 Imaging Densitometer (Bio-Rad Laboratories, Inc, Hercules, Calif.) (Blaskovich, M. A. et al. Nat Biotechnol, 2000, 18:1065-70).
# VEGFR (Flk-1/KDR) = experiment: VEGF-stimulated Flk-1 tyrosine phosphorylation in Flk-1/NIH 3T3 cells; assay type: cell-based, human
# Experimental: as §1
# PDGFR [2] = experiment: 125I-PDGF binding to its receptor on NIH 3T3 cells; set-up: species or system mouse; conditions: 4° C., 0.5 hours, read-out: IC50 inhibition of [I-125]PDGF binding to its receptor
# Experimental: (§2) Flk-1/NIH 3T3, NIH 3T3 and EGFR/NIH 3T3 cells were incubated with ^125I-VEGF, ^125I-PDGF and ^125I-EGF (50,000 cpm/well) respectively, along with increasing concentrations of GFB204. Cells were incubated at 4° C. for 0.5 hours, then washed three times with PBS and three times with lysis buffer prior to determining ^125I counts as described under Materials and Methods. An excess of cold VEGF, PDGF, and EGF was used to obtain non-specific binding levels. FIGS. 2A-2C show specific binding (% control) for PDGFR, Flk-1, and EGFR, respectively.
# (§3) Binding of ^125I-growth factors to their receptors. The binding assay of ^125I-VEGF, ^125I-PDGF and ^125I-EGF to their respective receptors was carried out as described previously (Blaskovich, M. A. et al. Nat Biotechnol, 2000, 18:1065-70. Briefly, Flk-1/NIH 3T3 cells, NIH 3T3 cells and EGFR/NIH 3T3 cells were incubated with ^125I-VEGF, ^125I-PDGF and ^125I-EGF (50,000 cpm/well), respectively, and increasing concentrations of GFB204. Cells were incubated at 4° C. for 0.5 hours, then washed three times with PBS and three times with 25 mM Tris, pH 8.0, 1% Triton-X-100, 10% glycerol, and 1% SDS prior to determining ^125I counts on a gamma counter (Beckmann Inc.). An excess of cold growth factors were used to obtain nonspecific binding levels.
# EGFR = target: T1, EGFR (Homo sapiens, UniProt P00533); experiment: 125I-EGF binding to its receptor on EGFR/NIH 3T3 cells; conditions: concentrations as high as 100 μM
# T1 construct: expressed in transfected cells; host or cells: NIH 3T3 (EGFR/NIH 3T3)
# Experimental: as §2, §3
# [3] = tested on: EGF-stimulated Erk1, Erk2, Akt and STAT3 phosphorylation; experiment: EGF-stimulated phosphorylation of Erk1/2, Akt and STAT3 in EGFR/NIH 3T3 cells; assay type: cell-based, mouse; conditions: GFB204 10 μM
# Experimental: (§4) FIGS. 3A and 3B show the effect of GFB204 on growth factor stimulated Erk1, Erk2, Akt, and STAT3 phosphorylation. GFB204 inhibits VEGF and PDGF stimulation of Flk-1 tyrosine phosphorylation and Erk1/Erk2 phosphorylation (FIG. 3A). NIH 3T3 cells or Flk-1/NIH 3T3 cells were treated with increasing concentrations of GFB204 for 5 minutes prior to stimulation with PDGFBB (10 ng/ml) or VEGF (50 ng/ml), respectively, for 10 minutes. The cells were then lysed and processed for SDS-PAGE Western blotting with an antibody specific for phosphotyrosine-Flk-1 or anti-phosphotyrosine for PDGFR tyrosine phosphorylation or phospho-Erk1/2. GFB204 effects on growth factor-stimulated Erk1, Erk2, Akt and STAT3 phosphorylation (FIG. 3B). NIH 3T3, Flk-1/NIH 3T3, IGF-1R/NIH 3T3 or EGFR/NIH 3T3 cells were treated with GFB204 (10 μM) prior to stimulation with PDGF (NIH 3T3) VEGF (Flk-1/NIH 3T3), EGF (EGFR/NIH 3T3), bFGF (NIH 3T3) or IGF-1 (IGF-1R/NIH 3T3). The cells were then harvested and processed for SDS-PAGE Western blotting with antibodies specific for phospho-Erk1/2, phospho-Akt and phospho-STAT3.
# (§5) Growth factor-mediated stimulation of phosphorylation of Erk1/2, Akt and STAT3. […]
# [4] = tested on: bFGF-stimulated Erk1, Erk2, Akt and STAT3 phosphorylation; experiment: bFGF-stimulated phosphorylation of Erk1/2, Akt and STAT3 in NIH 3T3 cells; assay type: cell-based, mouse; conditions: GFB204 10 μM
# Experimental: as §4, §5
# [5] = tested on: Human middle cerebral artery endothelial cells; experiment: VEGF-induced capillary network formation on Matrigel; assay type: cell-based; conditions: Endothelial cell, VEGF 20 ng/ml
# Experimental: FIGS. 4A-4C show the effects of GFB204 on angiogenesis in vitro. GFB204 inhibits capillary network formation in a dose-response manner (FIG. 4C). Human middle cerebral artery endothelial cells (5×10^4) were seeded onto Matrigel and the cells were incubated with VEGF in the presence (FIG. 4B) or absence (FIG. 4A) of GFB204 as described under Materials and Methods.
# Capillary network formation. 200 μl of Matrigel was placed into each well of a 24-well culture plate at 4° C. and allowed to polymerize by incubation at 37° C. as described previously (Papadimitriou, E. et al. Biochem Biophys Res Commun, 2001, 282:306-13). Human middle cerebral artery endothelial cells (5×10^4) were seeded on the Matrigel in 1 ml of EBM containing VEGF (20 ng/ml). Each sample was photographed using a 10× objective lens, and quantified the total length of tube structures in each photograph using the Image Pro Plus software (Media Cybernetic, Inc., Md.).
# T1 sequence (P00533 25-1210): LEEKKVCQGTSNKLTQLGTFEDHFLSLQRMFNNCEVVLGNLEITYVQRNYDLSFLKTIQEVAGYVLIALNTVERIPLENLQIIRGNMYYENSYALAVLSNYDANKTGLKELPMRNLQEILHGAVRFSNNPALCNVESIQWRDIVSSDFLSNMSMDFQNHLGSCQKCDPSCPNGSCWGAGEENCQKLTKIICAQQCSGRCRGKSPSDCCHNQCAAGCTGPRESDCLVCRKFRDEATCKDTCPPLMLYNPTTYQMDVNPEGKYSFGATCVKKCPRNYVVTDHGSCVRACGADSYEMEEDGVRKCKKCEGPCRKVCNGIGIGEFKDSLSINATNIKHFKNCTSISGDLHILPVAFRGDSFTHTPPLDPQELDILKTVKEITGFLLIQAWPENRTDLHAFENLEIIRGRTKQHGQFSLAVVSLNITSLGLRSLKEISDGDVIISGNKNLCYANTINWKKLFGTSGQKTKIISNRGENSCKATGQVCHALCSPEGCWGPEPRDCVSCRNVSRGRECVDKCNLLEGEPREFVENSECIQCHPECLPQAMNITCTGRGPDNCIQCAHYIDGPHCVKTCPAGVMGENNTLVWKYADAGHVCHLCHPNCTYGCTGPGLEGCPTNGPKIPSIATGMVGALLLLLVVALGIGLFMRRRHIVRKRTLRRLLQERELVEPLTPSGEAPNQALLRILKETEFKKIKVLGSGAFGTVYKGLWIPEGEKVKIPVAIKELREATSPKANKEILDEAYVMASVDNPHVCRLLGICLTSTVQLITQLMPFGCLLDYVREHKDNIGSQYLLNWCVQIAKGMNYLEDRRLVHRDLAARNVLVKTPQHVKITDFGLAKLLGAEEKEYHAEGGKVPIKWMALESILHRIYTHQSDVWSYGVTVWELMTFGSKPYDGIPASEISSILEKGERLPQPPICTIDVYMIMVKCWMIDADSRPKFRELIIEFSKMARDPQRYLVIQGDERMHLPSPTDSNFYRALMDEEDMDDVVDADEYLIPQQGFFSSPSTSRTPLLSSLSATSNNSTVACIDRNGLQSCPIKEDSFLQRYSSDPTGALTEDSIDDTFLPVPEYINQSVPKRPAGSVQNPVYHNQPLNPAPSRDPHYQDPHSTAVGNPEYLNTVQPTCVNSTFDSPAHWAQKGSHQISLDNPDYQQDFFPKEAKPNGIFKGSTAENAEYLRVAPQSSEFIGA
compound,measurement,setting,value
CCCCOc1c2cc(C(=O)Nc3cc(C(=O)O)cc(C(=O)OCc4ccccc4)c3)cc1Cc1cc(C(=O)Nc3cc(C(=O)O)cc(C(=O)OCc4ccccc4)c3)cc(c1OCCCC)Cc1cc(C(=O)Nc3cc(C(=O)O)cc(C(=O)OCc4ccccc4)c3)cc(c1OCCCC)Cc1cc(C(=O)Nc3cc(C(=O)O)cc(C(=O)OCc4ccccc4)c3)cc(c1OCCCC)C2 [GFB204],IC50,PDGFR [1],190 nM
same,IC50,"VEGFR (Flk-1/KDR); VEGF 50 ng/ml stimulated Flk-1 tyrosine phosphorylation, read-out: IC50 (μM) VEGFR",0.48 ± 0.31 µM
same,IC50,VEGFR (Flk-1/KDR); read-out: IC50 VEGFR tyrosine phosphorylation (VEGF),0.48 µM
same,IC50,PDGFR [2],154 nM and 200 to 500 nM
same,[I-125]EGF binding to its receptor,EGFR,not affected
same,"EGF-stimulation of the phosphorylation of Erk1, Erk2, Akt and STAT3",[3],had little effect and not
same,"bFGF-stimulation of the phosphorylation of Erk1, Erk2, Akt and STAT3",[4],had little effect and not
same,IC50,[5],700 nM
